Measured values reported in article PMC7340851 (Bioorganic & medicinal chemistry, 2020).
Read-outs that look alike come from different tables or passages of the source.

Legend:
5-HT2AR = 5-HT2AR (Homo sapiens, UniProt P28223); assay: 5-HT2AR radioligand binding assay
5-HT6R = 5-HT6R (Homo sapiens, UniProt P50406); assay: 5-HT6R radioligand binding assay; conditions: [3H]LSD radioligand; triplicate; na = not active (<50% inhibition in a primary assay)
5-HT7AR = 5-HT7AR (Homo sapiens, UniProt P34969); assay: 5-HT7AR radioligand binding assay
Sequence of 5-HT7AR (P34969 1-445 isoform P34969-2): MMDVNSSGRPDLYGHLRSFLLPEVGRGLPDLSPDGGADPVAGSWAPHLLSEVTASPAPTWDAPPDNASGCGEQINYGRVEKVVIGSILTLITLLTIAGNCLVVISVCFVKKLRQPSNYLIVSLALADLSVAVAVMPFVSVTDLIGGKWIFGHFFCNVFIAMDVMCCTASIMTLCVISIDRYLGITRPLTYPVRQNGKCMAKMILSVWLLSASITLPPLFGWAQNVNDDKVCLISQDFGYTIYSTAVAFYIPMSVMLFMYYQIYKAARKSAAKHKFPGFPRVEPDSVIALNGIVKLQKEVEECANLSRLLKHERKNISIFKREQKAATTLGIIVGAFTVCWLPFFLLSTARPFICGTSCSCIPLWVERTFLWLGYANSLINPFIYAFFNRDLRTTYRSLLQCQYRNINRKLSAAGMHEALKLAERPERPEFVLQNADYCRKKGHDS

D5R = D5R (Homo sapiens, UniProt P21918); assay: D5R radioligand binding assay; conditions: triplicate; na = not active (<50% inhibition in a primary assay)
Sequence of D5R (P21918 whole entry): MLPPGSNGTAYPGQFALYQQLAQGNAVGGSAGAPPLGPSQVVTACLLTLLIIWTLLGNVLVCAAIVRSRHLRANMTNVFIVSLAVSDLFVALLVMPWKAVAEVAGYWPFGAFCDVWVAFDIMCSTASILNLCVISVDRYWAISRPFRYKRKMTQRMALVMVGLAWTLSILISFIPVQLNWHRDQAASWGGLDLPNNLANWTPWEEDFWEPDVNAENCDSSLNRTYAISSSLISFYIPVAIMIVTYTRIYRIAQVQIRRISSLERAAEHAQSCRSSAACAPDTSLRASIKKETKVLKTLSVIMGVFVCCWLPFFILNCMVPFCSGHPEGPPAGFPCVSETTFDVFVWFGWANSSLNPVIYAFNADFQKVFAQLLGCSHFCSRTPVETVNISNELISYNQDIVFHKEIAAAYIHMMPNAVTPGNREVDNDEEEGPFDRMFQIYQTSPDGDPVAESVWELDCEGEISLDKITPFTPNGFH

[1] = [3H]Ketanserin radioligand, triplicate, na = not active (<50% inhibition in a primary assay)

Sequence of 5-HT2AR (P28223 whole entry): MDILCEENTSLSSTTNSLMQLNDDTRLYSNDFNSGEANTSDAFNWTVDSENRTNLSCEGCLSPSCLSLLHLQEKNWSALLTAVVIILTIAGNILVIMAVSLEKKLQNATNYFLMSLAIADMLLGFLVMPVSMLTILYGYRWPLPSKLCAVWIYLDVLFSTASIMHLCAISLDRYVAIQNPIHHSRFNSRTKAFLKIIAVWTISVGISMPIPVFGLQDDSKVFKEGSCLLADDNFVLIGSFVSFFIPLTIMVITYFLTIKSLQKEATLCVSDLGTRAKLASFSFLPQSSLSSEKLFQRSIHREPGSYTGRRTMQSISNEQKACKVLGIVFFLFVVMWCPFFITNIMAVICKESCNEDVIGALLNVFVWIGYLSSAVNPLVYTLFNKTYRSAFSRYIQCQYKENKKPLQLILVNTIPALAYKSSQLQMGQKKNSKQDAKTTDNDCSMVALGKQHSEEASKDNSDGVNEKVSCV
Sequence of 5-HT6R (P50406 whole entry): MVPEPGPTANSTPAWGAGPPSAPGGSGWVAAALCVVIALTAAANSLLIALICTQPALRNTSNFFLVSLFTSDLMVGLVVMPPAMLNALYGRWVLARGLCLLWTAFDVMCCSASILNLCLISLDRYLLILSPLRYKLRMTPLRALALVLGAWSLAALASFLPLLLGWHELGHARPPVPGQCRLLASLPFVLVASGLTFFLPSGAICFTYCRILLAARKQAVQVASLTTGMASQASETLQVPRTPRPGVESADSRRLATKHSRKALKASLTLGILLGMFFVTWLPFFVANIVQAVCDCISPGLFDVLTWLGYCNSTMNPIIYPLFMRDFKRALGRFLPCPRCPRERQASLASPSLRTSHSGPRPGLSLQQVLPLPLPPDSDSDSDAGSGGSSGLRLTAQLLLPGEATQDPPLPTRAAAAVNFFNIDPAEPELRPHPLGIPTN

Row | Compound | Ki D5R (D5R) | Ki 5-HT2AR (5-HT2AR; [1]) | other results
1 | CN(C)c1ccc2c(c1)-c1cccc3c1C(C2)N(C)CC3 (centres unmarked) [Compound 31, N,N,6-trimethyl-5,6,6a,7-tetrahydro-4H-dibenzo[de,g]quinolin-10-amine] |  |  | Ki 5-HT2AR (5-HT2AR): fairly weak affinity; Ki 5-HT6R (5-HT6R): fairly weak affinity
2 | COc1cc2c3c(c1OC)-c1cc(NC(N)=O)ccc1CC3N(C)CC2 (centres unmarked) [Compound 19, 1-(1,2-dimethoxy-6-methyl-5,6,6a,7-tetrahydro-4H-dibenzo[de,g]quinolin-10-yl)urea] |  | lack of affinity | 
3 | COc1cc2c3c(c1OC)-c1cc(NS(C)(=O)=O)ccc1CC3N(C)CC2 (centres unmarked) [Compound 15, N-(1,2-dimethoxy-6-methyl-5,6,6a,7-tetrahydro-4H-dibenzo[de,g]quinolin-10-yl)methanesulfonamide] |  | lack of affinity | 
4 | CN1CCc2cccc3c2C1Cc1ccc(NC(N)=O)cc1-3 (centres unmarked) [Compound 29, 1-(6-methyl-5,6,6a,7-tetrahydro-4H-dibenzo[de,g]quinolin-10-yl)urea] | lacked affinity |  | 
5 | CCCN1CCc2cccc3c2C1Cc1ccc(NC(C)=O)cc1-3 (centres unmarked) [Compound 25, N-(6-propyl-5,6,6a,7-tetrahydro-4H-dibenzo[de,g]quinolin-10-yl)acetamide] |  | no affinity | Ki 5-HT7AR (5-HT7AR; [3H]LSD radioligand, triplicate, na = not active (<50% inhibition in a primary assay)): no affinity; Ki 5-HT6R (5-HT6R): no affinity

Further lines, with some results ahead:

Row | Ki D5R (D5R) | Ki 5-HT2AR (5-HT2AR; [1]) | Compound | other results
6 | no affinity |  | CN1CCc2cccc3c2C1Cc1ccc2nc(N)sc2c1-3 (centres unmarked) [Compound 33a, 7-methyl-6a,7,8,9-tetrahydro-6H-benzo[de]thiazolo[4’,5’:5,6]benzo[1,2-g]quinolin-2-amine] | selectivity for 5-HT7AR versus 5-HT1AR (5-HT7AR; ratio of binding affinities): approximately 19 fold
7 | lack of affinity |  | CCCN1CCc2cccc3c2C1Cc1cc2sc(N)nc2cc1-3 (centres unmarked) [Compound 34b, 6-propyl-5,6,6a,7-tetrahydro-4H-benzo[de]thiazolo[5’,4’:4,5]benzo[1,2-g]quinolin-10-amine] | 
